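Test compounds were applied to cells in 96-well plates for 48 hours at 5 doses. GI50 marks 50% less growth.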 Activity calls are given as the source filed them. Cut-off read from the data, not from the text of the source: active = GI50 up to about 1.1 µM and inactive = higher.
Tests used:
Assay in all cases: NCI-60 cell line screen, 48 h
LOX IMVI = tested on: LOX IMVI
Malme-3M = tested on: Malme-3M
HCT-116 = tested on: HCT-116
A498 = tested on: A498
NCI/ADR-RES = tested on: NCI/ADR-RES
KM12 = tested on: KM12
SW-620 = tested on: SW-620
NCI-H23 = tested on: NCI-H23
COLO 205 = tested on: COLO 205
EKVX = tested on: EKVX
NCI-H460 = tested on: NCI-H460
A549 = tested on: A549
OVCAR-5 = tested on: OVCAR-5
K562 = tested on: K562
CAKI-1 = tested on: CAKI-1
SN12C = tested on: SN12C
HOP-92 = tested on: HOP-92
OVCAR-4 = tested on: OVCAR-4
UACC-257 = tested on: UACC-257

SMILES | GI50 (LOX IMVI) | GI50 (Malme-3M) | GI50 (HCT-116) | GI50 (A498) | GI50 (NCI/ADR-RES) | GI50 (KM12) | GI50 (SW-620) | GI50 (NCI-H23) | GI50 (COLO 205) | GI50 (EKVX) | GI50 (NCI-H460) | GI50 (A549) | GI50 (OVCAR-5) | GI50 (K562) | GI50 (CAKI-1) | GI50 (SN12C) | GI50 (HOP-92) | GI50 (OVCAR-4) | GI50 (UACC-257)
c1ccc(-c2cc3[nH]c4ccccc4[nH]c-3cc(-c3ccccc3)nn2)cc1 | 72.3 µM (inactive) | 62.4 µM (inactive) | 33.6 µM (inactive) | 22.8 µM (inactive) | > 100 µM (inactive) | 46.9 µM (inactive) | 81.7 µM (inactive) | > 100 µM (inactive) | > 100 µM (inactive) | > 100 µM (inactive) | 30 µM (inactive) | 40.4 µM (inactive) | > 100 µM (inactive) | > 100 µM (inactive) | 91.8 µM (inactive) | > 100 µM (inactive) | > 100 µM (inactive) | 56.2 µM (inactive) | > 100 µM (inactive)
CCOP(=O)(OCC)/C(C#N)=C/c1cnc[nH]1 | > 100 µM (inactive) | > 100 µM (inactive) | > 100 µM (inactive) | > 100 µM (inactive) | > 100 µM (inactive) | > 100 µM (inactive) | > 100 µM (inactive) | > 100 µM (inactive) | > 100 µM (inactive) | > 100 µM (inactive) | > 100 µM (inactive) | > 100 µM (inactive) | > 100 µM (inactive) | > 100 µM (inactive) | > 100 µM (inactive) | > 100 µM (inactive) | > 100 µM (inactive) | > 100 µM (inactive) | > 100 µM (inactive)
CN(C)c1nc2n(CCO)ccnc-2c(=O)n1 | > 100 µM (inactive) | > 100 µM (inactive) | > 100 µM (inactive) | > 100 µM (inactive) | > 100 µM (inactive) | > 100 µM (inactive) | > 100 µM (inactive) | > 100 µM (inactive) | > 100 µM (inactive) | > 100 µM (inactive) | > 100 µM (inactive) | > 100 µM (inactive) | > 100 µM (inactive) | > 100 µM (inactive) | > 100 µM (inactive) | > 100 µM (inactive) | > 100 µM (inactive) | > 100 µM (inactive) | > 100 µM (inactive)
O=C1c2ccccc2-n2c1nc1ccc([N+](=O)[O-])cc1c2=O | 22.5 µM (inactive) | 51.5 µM (inactive) | 27.1 µM (inactive) | 5.62 µM (inactive) | > 100 µM (inactive) | 68.9 µM (inactive) | 45.1 µM (inactive) | 48.2 µM (inactive) | > 100 µM (inactive) | 93.1 µM (inactive) | > 100 µM (inactive) | > 100 µM (inactive) | > 100 µM (inactive) | 30.1 µM (inactive) | 20.2 µM (inactive) | 49.2 µM (inactive) | > 100 µM (inactive) | > 10 µM (inactive) | 89.7 µM (inactive)
CC1=CC[C@@]2(C)[C@@H]([C@@H]1C)[C@H]1CC[C@@H]3[C@@]4(C)CC[C@H](O)C(C)(C)[C@@H]4CC[C@@]3(C)[C@]1(C)C[C@@H]2O | 5.53 µM (inactive) | 30.4 µM (inactive) | 22.2 µM (inactive) | > 20.7 µM (inactive) | 21.8 µM (inactive) | 23.3 µM (inactive) | 33.6 µM (inactive) | 25.6 µM (inactive) | 15 µM (inactive) | 5.61 µM (inactive) | 19.1 µM (inactive) | 12.6 µM (inactive) | > 50.8 µM (inactive) | 4.2 µM (inactive) | 37.2 µM (inactive) | 6.61 µM (inactive) | 25.6 µM (inactive) | 24.3 µM (inactive) | 17.4 µM (inactive)
CC(=O)c1sc2c(c1OC(=O)c1ccc(Cl)cc1)c(=O)n(-c1ccccc1)c(=S)n2-c1ccccc1 | 2.32 µM (inactive) | 1.94 µM (inactive) | 9.08 µM (inactive) | 1.08 µM (active) | 4.73 µM (inactive) | 10.9 µM (inactive) | 12.7 µM (inactive) | 17.5 µM (inactive) | 3.53 µM (inactive) | 11.4 µM (inactive) | 4.86 µM (inactive) | 25.4 µM (inactive) | 2.77 µM (inactive) | 9.04 µM (inactive) | 3.39 µM (inactive) | 2.06 µM (inactive) | 3.25 µM (inactive) | 22.3 µM (inactive) | 5.19 µM (inactive)
COc1ccc(C2OC(c3ccncc3)=NN2C)cc1F (stereo unspecified) | > 100 µM (inactive) | > 100 µM (inactive) | > 100 µM (inactive) | > 100 µM (inactive) | > 100 µM (inactive) | > 100 µM (inactive) | > 100 µM (inactive) | > 100 µM (inactive) | > 100 µM (inactive) | > 100 µM (inactive) | > 100 µM (inactive) | > 100 µM (inactive) | > 100 µM (inactive) | > 100 µM (inactive) | 51.4 µM (inactive) | > 100 µM (inactive) | > 100 µM (inactive) | > 100 µM (inactive) | > 100 µM (inactive)
Cc1ccc(C2SCc3nc4ccccc4n32)cc1 (stereo unspecified) | 4.47 µM (inactive) | 4.04 µM (inactive) | 3.11 µM (inactive) | 3.15 µM (inactive) | 2.37 µM (inactive) | 1.51 µM (inactive) | 4.84 µM (inactive) | 2.72 µM (inactive) | 1.36 µM (inactive) | 5.35 µM (inactive) | 3.76 µM (inactive) | 6.43 µM (inactive) | 6.46 µM (inactive) | 0.671 µM (active) | 1.52 µM (inactive) | 3.01 µM (inactive) | 3.74 µM (inactive) | 8.77 µM (inactive) | 4.79 µM (inactive)
O=c1ccn([C@@H]2C[C@@H]2CO)c(=O)[nH]1 | > 100 µM (inactive) | > 100 µM (inactive) | > 100 µM (inactive) | > 100 µM (inactive) | > 100 µM (inactive) | > 100 µM (inactive) | > 100 µM (inactive) | > 100 µM (inactive) | > 100 µM (inactive) | > 100 µM (inactive) | > 100 µM (inactive) | > 100 µM (inactive) | > 100 µM (inactive) | > 100 µM (inactive) | > 100 µM (inactive) | > 100 µM (inactive) | > 100 µM (inactive) | > 100 µM (inactive) | > 100 µM (inactive)
N#CC1(C#N)NC(c2cccs2)C(C#N)(C#N)NC1c1cccs1 (stereo unspecified) | 19.7 µM (inactive) | 41.9 µM (inactive) | 30.5 µM (inactive) | 20.5 µM (inactive) | 77.3 µM (inactive) | 39.9 µM (inactive) | 31.1 µM (inactive) | 55.1 µM (inactive) | 47.9 µM (inactive) | 55.8 µM (inactive) | 37.3 µM (inactive) | 50.8 µM (inactive) | 31.9 µM (inactive) | 22.4 µM (inactive) | 58.6 µM (inactive) | 43.2 µM (inactive) | 23 µM (inactive) | 43.7 µM (inactive) | > 100 µM (inactive)
Cc1cccc(/C=N/NC(=S)Nc2ccccc2)n1 | 2.67 µM (inactive) | 5.04 µM (inactive) | 3.47 µM (inactive) | 15.3 µM (inactive) | 2.88 µM (inactive) | 4.72 µM (inactive) | 5.25 µM (inactive) | 6.18 µM (inactive) | 2.75 µM (inactive) | 5.97 µM (inactive) | 1.57 µM (inactive) | 5.61 µM (inactive) | 5.85 µM (inactive) | 4.1 µM (inactive) | 5.19 µM (inactive) | 2.8 µM (inactive) | 5.15 µM (inactive) | 6.31 µM (inactive) | 1.82 µM (inactive)
Cc1cc(C)c(S(=O)(=O)N(CCCCCCN)OCCCON(CCCCCCN)S(=O)(=O)c2c(C)cc(C)cc2C)c(C)c1 | 1.7 µM (inactive) | 1.45 µM (inactive) | 1.69 µM (inactive) | 1.7 µM (inactive) | 13.2 µM (inactive) | 1.9 µM (inactive) | 2.15 µM (inactive) | 1.63 µM (inactive) | 1.89 µM (inactive) | 1.79 µM (inactive) | 1.64 µM (inactive) | 1.72 µM (inactive) | 1.4 µM (inactive) | 3.61 µM (inactive) | 1.94 µM (inactive) | 1.9 µM (inactive) | 1.46 µM (inactive) | 1.67 µM (inactive) | 1.69 µM (inactive)
CC1=NN(C(=O)CC(=O)Nc2cccc(Cl)c2)C(=O)C1/N=N/c1ccc(C(=O)O)cc1 (stereo unspecified) | 82.4 µM (inactive) | > 100 µM (inactive) | > 100 µM (inactive) | > 100 µM (inactive) | > 100 µM (inactive) | > 100 µM (inactive) | > 100 µM (inactive) | > 100 µM (inactive) | > 100 µM (inactive) | > 100 µM (inactive) | > 100 µM (inactive) | > 100 µM (inactive) | > 100 µM (inactive) | > 100 µM (inactive) | > 100 µM (inactive) | > 100 µM (inactive) | 27.7 µM (inactive) | > 100 µM (inactive) | > 100 µM (inactive)
Cc1cc(=O)oc2cc(OC(=O)Nc3ccc(Cl)c(Cl)c3)ccc12 | 18.9 µM (inactive) | 23.1 µM (inactive) | 15.5 µM (inactive) | 14.2 µM (inactive) | 30.5 µM (inactive) | 27.1 µM (inactive) | 21.4 µM (inactive) | 20.7 µM (inactive) | 32.4 µM (inactive) | 30.8 µM (inactive) | 18.5 µM (inactive) | 24.8 µM (inactive) | 20.4 µM (inactive) | 10.9 µM (inactive) | 38.3 µM (inactive) | 25.3 µM (inactive) | 13.6 µM (inactive) | 41.3 µM (inactive) | 30.8 µM (inactive)
